According to patent US20250195687A1, “PEPTIDE-BASED PHOSPHATE BINDER FOR THE TREATMENT OF HYPERPHOSPHATEMIA” (B. G. NEGEV TECHNOLOGIES AND APPLICATIONS LTD., priority 2022, published 2025):

Key:
[1] = Colorimetric (molybdenum blue) phosphate binding in intestinal and gastric fluid simulants; settings: pH=6 or pH=7.5 (clinical PhB at pH=7.5)
Text: The binding efficiency of the SiO2-CysHex particles in intestinal and digestive fluid simulants was examined by a colorimetric method. The procedure was based on the determination of the amount of uncaptured phosphate from a solution of known initial phosphate concentration. A spectrophotometric assay referred to as the molybdenum blue reaction was employed. It emits a blue color whose intensity is linearly proportional to the amount of phosphate present in the solution allowing by measurement of color intensity and proper calibration, to determine phosphate concentration. The reaction involves the following two steps: • 1. PO4^3−+12(NH4)2MoO4+24H^+→(NH4)3PO4·12MoO3+21NH4^++12H2O • 2. […]
For this experiment, a phosphate assay kit (Sigma-Aldrich) with a stated concentration range between 0.005 mM and 0.025 mM phosphate was used. The kit included a 10 mM phosphate standard solution and a coloring reagent that reacts with phosphates to form a complex that could be measured and quantified by UV-VIS absorbance spectroscopy. The phosphate standard was used to prepare a calibration curve between the absorbance intensity at a wavelength of 650 nm and phosphate concentrations. […]
A volume of 20 μL of the supernatant filtrate (sec 4.3.3.1.2), 180 μL DI water, and 30 μL coloring reagent were added to a 96 well plate. Two duplicates of each sample were measured, and the resulting values were averaged. […]

[2] = 31P NMR phospholipid peak widening by free peptide in FES solution; assay type: binding
Text: ^31P NMR-NMR relaxation is the process by which excited magnetic state nuclei return to their equilibrium distribution. At the start of an NMR experiment, the nuclei are “lined up” with the external magnetic field. When an electromagnetic RF field is activated on these nuclei, they resonate at a characteristic resonance frequency, and the NMR signal is created. At that instant, all the nuclei are in phase and coherent. However, due to small differences in their resonance frequencies, they will begin to dephase. The time it takes for the nuclei to dephase is measured by T2 the so-called spin-spin relaxation time. T2 is inversely proportional to Δω, the width of the resonance peak in the spectra measured at half the maximum height: Δω=2/T2. The more slowly a macromolecule tumbles, the shorter its T2; thus, big molecules have broader resonance peaks than small molecules. An increase in molecular size due to interaction or reduced mobility affects the T2 relaxation time and is manifested by widening the NMR signal. […]
The first sample used for FES solution reference was composed of 1 mL FES solution which was placed in a 1.5 mL Eppendorf tube. […] The pH was measured using a pH electrode (Mettler Toledo, SevenComplex) and adjusted to the desired value by dropwise addition of HCl or NaOH solutions. […] The contents of each Eppendorf tube were analyzed separately by NMR as described below.
Solution ^31P NMR data were collected on a Bruker Avance III 400 MHz spectrometer (Bruker BioSpin, Germany). […] A capillary tube insert filled with phosphoric acid solution in D2O (10% v/v phosphoric acid in D2O/H2O) was used for calibration and inserted into the NMR tube that contained the measured sample. […] NMR data was analyzed using TopSpin software (Bruker).
The capability of a free unbound peptide to capture phosphate in the intestinal simulant solutions was examined using P NMR. […] As discussed above, binding is qualitatively evaluated by the decrease in T2 relaxation, or the corresponding widening of the peak associated with the phosphorus nuclei in the molecule and calculated as follows: […]

[3] = 31P NMR phosphate peak widening by free peptide in intestinal fluid simulants; assay type: binding; settings: for phosphate peak widening: peptide 13.1 mM, phosphate 2.6 mM
Text: ^31P NMR-NMR relaxation is the process by which excited magnetic state nuclei return to their equilibrium distribution. At the start of an NMR experiment, the nuclei are “lined up” with the external magnetic field. When an electromagnetic RF field is activated on these nuclei, they resonate at a characteristic resonance frequency, and the NMR signal is created. At that instant, all the nuclei are in phase and coherent. However, due to small differences in their resonance frequencies, they will begin to dephase. The time it takes for the nuclei to dephase is measured by T2 the so-called spin-spin relaxation time. T2 is inversely proportional to Δω, the width of the resonance peak in the spectra measured at half the maximum height: Δω=2/T2. The more slowly a macromolecule tumbles, the shorter its T2; thus, big molecules have broader resonance peaks than small molecules. An increase in molecular size due to interaction or reduced mobility affects the T2 relaxation time and is manifested by widening the NMR signal.
In this study, phosphate-binding experiments of free (unattached to silica) peptides in intestinal fluid simulants as function of the surrounding pH were examined. Binding was determined by the widening of the relevant phosphate peaks in phosphorus NMR (^31P NMR) spectra. These experiments aimed to investigate the effect of the background solution containing many components on the ability of the peptide to bind phosphate. ^31P NMR experiments were preferred over standard ^1H NMR since in the former only one (phosphate) or at most two (phosphate and phospholipid) peaks are detected as opposed to the multitude of frequently overlapping, peaks in the spectra of the latter. […]
Samples were prepared by mixing the required amounts of phosphate stock solution, and FAS or FES solutions into one 1.5 mL Eppendorf tube, and phosphate stock, peptide stock, and FAS or FES solution into a second similar tube. in. The pH was measured and adjusted to the desired value as described above. […] The contents of each Eppendorf tube were analyzed separately by NMR as described below. […]

Row | Compound | Phosphate binding effectiveness ([1]; FAS) [mg phosphate/gr PhB] | Phosphate binding effectiveness ([1]; FES) [mg phosphate/gr PhB] | pH of lowest phospholipid binding ([2]; absence of phosphate) | phospholipid binding ([2]; absence of phosphate, 6.5 peptide molecules per phospholipid molecule, entire relevant pH range) | phospholipid peak width (ratio) ([2]; pH=6, peptide 13.1 mM and phosphate 2.6 mM present, phospholipid 2 mM, average of three measurements) | phosphate peak widening ([3]; FAS solution) | phosphate peak widening ([3]; FES solution) | pH range in which the peptide captures phosphate ([3]; only in FES)
1 | O=C([O-])[O-].O=C([O-])[O-].O=C([O-])[O-].[La+3].[La+3] [Lanthanum, Lanthanum carbonate] | 4.1 | 0.9 |  |  |  |  |  | 
2 | Cys-SGAGKT [CysHex] |  |  | ~6 | binds the phospholipid quite effectively | 0.93±0.15 | no widening | pH dependent and is maximal at pH values commensurate with values in the GI tract | 7-8
